Residue numbers refer to the chain shown, from its start. No end group written: not given here.
Key:
DPA10103-DPB10401 = target: T1, DPA10103-DPB10401 (Homo sapiens, UniProt P04440+P20036); experiment: Competitive MHC class II binding assay, DPA10103-DPB10401
T1 sequence (P20036 29-260): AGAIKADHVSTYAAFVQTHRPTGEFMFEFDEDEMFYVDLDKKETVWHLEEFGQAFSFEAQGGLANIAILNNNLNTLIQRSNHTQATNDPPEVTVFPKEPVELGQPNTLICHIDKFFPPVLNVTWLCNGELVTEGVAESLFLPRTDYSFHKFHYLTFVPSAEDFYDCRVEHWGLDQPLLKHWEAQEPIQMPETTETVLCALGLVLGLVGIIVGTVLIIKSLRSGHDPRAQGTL
T1 sequence (P04440 30-258): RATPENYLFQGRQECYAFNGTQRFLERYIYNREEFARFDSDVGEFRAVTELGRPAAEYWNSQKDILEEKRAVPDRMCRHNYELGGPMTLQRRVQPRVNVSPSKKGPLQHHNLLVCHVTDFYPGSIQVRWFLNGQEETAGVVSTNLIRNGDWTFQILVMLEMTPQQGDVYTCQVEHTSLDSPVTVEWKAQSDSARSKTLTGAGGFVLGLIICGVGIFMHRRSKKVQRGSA

DQA10102-DQB10602 = experiment: Competitive MHC class II binding assay, DQA10102-DQB10602; settings: read-out: HLA-DQA10102-DQB10602; positive binding at cutoff 1000 nM
DPA10103-DPB10201 = target: T2, DPA10103-DPB10201 (Homo sapiens, UniProt P04440+P20036, A65V/A84D/A85E/K98E); experiment: Competitive MHC class II binding assay, DPA10103-DPB10201
T2 sequence (P20036 29-260): T1 sequence (P20036 29-260)
T2 sequence (P04440 30-258 A65V/A84D/A85E/K98E): T1 sequence (P04440 30-258) with A36V, A55D, A56E, K69E

DRB5_0101 = DRB5_0101 (Homo sapiens, UniProt P01903+Q30154); experiment: Competitive MHC class II binding assay, DRB5_0101
DQA10501-DQB10201 = DQA10501-DQB10201 (Homo sapiens, UniProt P01909+P01920, A45G/A70V/D89A/E106A/E77G/E98D/H199R/L107V/N214S/P84L/P87L/T103K/T109R/T172A/T60S/V78E/V99I/Y58L/Y62S/Y69I/Y79F); experiment: Competitive MHC class II binding assay, DQA10501-DQB10201
DRB3_0101 = DRB3_0101 (Homo sapiens, UniProt P01903+P79483); experiment: Competitive MHC class II binding assay, DRB3_0101
DRB1_0401 = DRB1_0401 (Homo sapiens, UniProt P01903+P01911, A100K/A169T/F76Y/I96L/K127E/L162R/M171V/N62H/P40V/Q125Y/R42H/S133A/S149N/S66Y/V115G/V209L/W38E); experiment: Competitive MHC class II binding assay, DRB1_0401
DRB3_0202 = DRB3_0202 (Homo sapiens, UniProt P01903+P79483, A212P/D57E/F66Y/L67A/R103Q/R218S/R40L/S89Y/T80R/V86D/Y55F/Y59H); experiment: Competitive MHC class II binding assay, DRB3_0202
DRB1_0301 = DRB1_0301 (Homo sapiens, UniProt P01903+P01911, A100K/A102G/A103R/A169T/F55Y/I96L/K41T/L162R/M171V/P40S/Q125H/Q178H/Q39Y/R42S/S66N/T106N/T262R/W38E/Y61H); experiment: Competitive MHC class II binding assay, DRB1_0301
DRB1_1201 = DRB1_1201 (Homo sapiens, UniProt P01903+P01911, A100R/A169T/D57E/D86V/F55L/H45Y/K41T/L162R/M171V/P40S/Q125H/Q178H/Q39Y/Q99D/R42G/S66L/T262R/V114A/V67L/W38E/Y59H/Y61H/Y89S); experiment: Competitive MHC class II binding assay, DRB1_1201
DRB1_0901 = DRB1_0901 (Homo sapiens, UniProt P01903+P01911, A100R/A103E/D57H/D86V/F55Y/F60I/F76Y/I96F/K127E/L162R/M171V/P40D/Q125H/Q99R/R33Q/R42F/S133A/S66N/T210M/V115G/W38K/Y107V/Y59G/Y89S); experiment: Competitive MHC class II binding assay, DRB1_0901;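 also: displacement of a radiolabeled probe peptide from purified HLA class II protein, bound counts read after two to four days incubation, six concentrations spanning 100,000-fold, unlabeled probe as reference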
DRB1_1501 = DRB1_1501 (Homo sapiens, UniProt P01903+P01911); experiment: Competitive MHC class II binding assay, DRB1_1501
DRB1_1101 = DRB1_1101 (Homo sapiens, UniProt P01903+P01911, A100R/A169T/A87E/I96F/K41T/L162R/M171V/P40S/Q125H/Q178H/Q39Y/Q99D/R42S/S66Y/T262R/V115G/W38E); experiment: Competitive MHC class II binding assay, DRB1_1101
DRB1_0405 = DRB1_0405 (Homo sapiens, UniProt P01903+P01911, A100R/A169T/D86S/F76Y/I96L/K127E/L162R/M171V/N62H/P40V/Q125Y/R42H/S133A/S149N/S66Y/V115G/V209L/W38E); experiment: Competitive MHC class II binding assay, DRB1_0405
DQA10501-DQB10301 = DQA10501-DQB10301 (Homo sapiens, UniProt P01909+P01920); experiment: Competitive MHC class II binding assay, DQA10501-DQB10301
DRB1_0701 = DRB1_0701 (Homo sapiens, UniProt P01903+P01911, A100R/A102G/A103Q/D57E/D86V/E43K/F76Y/K127E/L162R/M171V/P40G/Q125H/Q99D/R33Q/R42Y/R54Q/S133A/S66F/T210M/V115G/Y107V/Y59L/Y89S); experiment: Competitive MHC class II binding assay, DRB1_0701;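 also: displacement of a radiolabeled reference peptide from purified HLA class II protein, with complex-bound radioactivity counted after 2–4 days of incubation and six concentrations spanning a 100,000-fold range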
DRB1_1302 = DRB1_1302 (Homo sapiens, UniProt P01903+P01911, A100E/A169T/K41T/L162R/M171V/P40S/Q125H/Q178H/Q39Y/Q99D/R42S/S66N/T262R/V115G/W38E/Y61H); experiment: Competitive MHC class II binding assay, DRB1_1302;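 also: purified HLA class II protein incubated two to four days with a radiolabeled reference binder and test peptide at six concentrations over a 100,000-fold range, complex-bound radioactivity counted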
DPA10201-DPB10101 = experiment: Competitive MHC class II binding assay, DPA10201-DPB10101; settings: read-out: HLA-DPA10201-DPB10101; positive binding at cutoff 1000 nM
DRB4_0101 = DRB4_0101 (Homo sapiens, UniProt P01903+P13762, G164S); experiment: Competitive MHC class II binding assay, DRB4_0101
DRB1_0101 = DRB1_0101 (Homo sapiens, UniProt P01903+P01911, A100R/D57E/F55L/F60I/F76Y/I96L/L162R/M171V/P40L/Q125E/R42F/V115G/Y59C); experiment: Competitive MHC class II binding assay, DRB1_0101;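 also: competition against a radiolabeled probe peptide (0.1–1 nM) for purified HLA class II protein over 2–4 days, bound counts read after antibody capture, six competitor levels across 100,000-fold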
DRB1_0802 = DRB1_0802 (Homo sapiens, UniProt P01903+P01911, A100R/A103L/A169T/F76Y/H45Y/I96F/K41T/L162R/M171V/P40S/Q125H/Q178H/Q39Y/Q99D/R218S/R42G/S66Y/V115G/W38E); experiment: Competitive MHC class II binding assay, DRB1_0802
DQA10101-DQB10501 = DQA10101-DQB10501 (Homo sapiens, UniProt P01909+P01920, A157S/A45G/A70V/C70R/D89V/E106S/E118A/E183D/E77G/F83G/G63E/H151Q/H199R/H252R/H253Q/I129T/I235V/I88M/INS77G/K197Q/L107V/L117V/L119Y/L178F/L71W/L74F/L85Q/L91A/L98M/M46L/N214S/P87R/Q116E/Q256R/Q57E/Q76K/R102G/R240Q/R75S/R78G/S102Y/S185I/S41F/S97I/T103A/T109R/T121G/T122I/T172A/T86R/V148I/V68A/V73E/Y34C/Y58G/Y62H); experiment: Competitive MHC class II binding assay, DQA10101-DQB10501; settings: positive binding at cutoff 1000 nM; read-out: HLA-DQA10101-DQB10501
DPA10201-DPB11401 = experiment: Competitive MHC class II binding assay, DPA10201-DPB11401; settings: read-out: HLA-DPA10201-DPB11401; positive binding at cutoff 1000 nM
DPA10202-DPB10501 = target: T3, DPA10202-DPB10501 (Homo sapiens, UniProt P04440+P20036, A42M/A65V/A84E/F191V/F64L/G113D/G114E/K142R/L158P/M116V/M62Q/P115A/Q81R/R125K/T114A/T199I/T259P/V234M); experiment: Competitive MHC class II binding assay, DPA10202-DPB10501; settings: positive binding at cutoff 1000 nM; read-out: HLA-DPA10202-DPB10501
T3 sequence (P04440 30-258 A65V/A84E/F64L/G113D/G114E/M116V/P115A/R125K/T199I/V234M): T1 sequence (P04440 30-258) with F35L, A36V, A55E, G84D, G85E, P86A, M87V, R96K, T170I, V205M
T3 sequence (P20036 29-260 A42M/F191V/K142R/L158P/M62Q/Q81R/T114A/T259P): T1 sequence (P20036 29-260) with A14M, M34Q, Q53R, T86A, K114R, L130P, F163V, T231P

IC50 (DPA10103-DPB10401) [µM]	IC50 (DPA10103-DPB10201) [µM]	IC50 (DRB5_0101) [µM]	IC50 (DRB1_0401) [µM]	IC50 (DRB3_0202) [µM]	IC50 (DRB1_0301) [µM]	IC50 (DRB1_1201) [µM]	IC50 (DRB1_0901) [µM]	IC50 (DRB1_1501) [µM]	IC50 (DRB1_0405) [µM]	IC50 (DRB1_0701) [µM]	IC50 (DRB1_1302) [µM]	IC50 (DRB4_0101) [µM]	IC50 (DRB1_0802) [µM]	IC50 (DQA10101-DQB10501) [µM]	Sequence	also measured
< 1	< 1	< 1	< 1	< 1	< 1	< 1	< 1	< 1	< 1	< 1	< 1	–	–	–	IEYIQHNGVVQESYYRYVAR [pep-049]	IC50 (DQA10102-DQB10602): < 1 µM; IC50 (DQA10501-DQB10201): < 1 µM; IC50 (DRB3_0101): < 1 µM; IC50 (DRB1_1101): < 1 µM; IC50 (DQA10501-DQB10301): < 1 µM
< 1	–	< 1	< 1	< 1	–	–	< 1	< 1	< 1	< 1	< 1	< 1	< 1	< 1	ESAYLAYRNQSLDLAE [pep-009]	IC50 (DPA10201-DPB10101): < 1 µM; IC50 (DRB1_0101): < 1 µM
–	< 1	< 1	< 1	< 1	< 1	< 1	< 1	< 1	–	< 1	< 1	< 1	< 1	< 1	QQYDIKYTWNVPKIA [pep-031]	IC50 (DPA10201-DPB11401): < 1 µM; IC50 (DPA10202-DPB10501): < 1 µM

From patent US20160251403A1, “PEPTIDE COMBINATIONS AND USES THEREOF IN TREATING DUST MITE ALLERGY” (ALK-ABELLO A/S, priority 2013, published 2016)
